# Data reported in US8206732B2, “Pyrithione biocides enhanced by silver, copper, or zinc ions” (Arch Chemicals, Inc., priority 1999, dated 2012).
# Several values for one entry are separate records, joined by “and”; a condition that tells them apart may be missing. Equal values may be shown once.
# Columns and labels:
# [1] = tested on: Pseudomonas aeruginosa ATCC 9027; assay: MIC in Tryptic Soy Broth, microtiter (Example 1); format: cell-based; conditions: 28° C.
# Fusarium sp. = assay: MIC in Tryptic Soy Broth, microtiter (Example 1); format: cell-based; conditions: TSB with 0.5 ppm Cu (II), 28° C., 5 days
# Experimental: Equal volumes of bacterial suspension (10^6 bacteria per milliliter of TSB) containing Pseudomonas aeruginosa ATCC 9027 or fungal spore suspension (10^5 spores per milliliter of TSB) containing Aspergillus niger ATCC 6275 or species of Fusarium and Cephalosporium isolated from contaminated metalworking fluid were added to each microtiter plate well, and the plates were incubated at 28° C. Controls were prepared for cultures inoculated into TSB with and without Cu (II).
# Cephalosporium sp. = assay: MIC in Tryptic Soy Broth, microtiter (Example 1); format: cell-based; conditions: 28° C.
# [2] = tested on: Staphylococcus aureus ATCC 27217; assay: Zone of inhibition test (paper disc on TSA); format: cell-based; conditions: 6.5 mm discs; 0.135% pyrithione, 0.1% ZnCl2 or both; 28° C., 24 hr
# [3] = tested on: Escherichia coli ATCC 10536; assay: Zone of inhibition test (paper disc on TSA); format: cell-based; conditions: 6.5 mm discs; 0.135% pyrithione, 0.1% ZnCl2 or both; 28° C., 24 hr
# [4] = tested on: Staphylococcus aureus ATCC 27217; assay: Checkerboard MIC test, pyrithiones with zinc salts; format: cell-based; conditions: pyrithione alone or pyrithione concentration in the inhibitory mixture; TSB, 28 C, 3 days
# [5] = tested on: Pseudomonas aeruginosa NCIMB 6749; assay: Checkerboard MIC test, pyrithiones with zinc salts; format: cell-based; conditions: pyrithione alone or pyrithione concentration in the inhibitory mixture; TSB, 28 C, 3 days
# [6] = tested on: Staphylococcus aureus 27217; assay: Checkerboard MIC test, pyrithiones with silver salts; format: cell-based; conditions: NaPT alone or in the inhibitory mixture with silver salt; TSB pH 7.3, 35° C., 1 to 2 days
# [7] = tested on: Pseudomonas aeruginosa 9027; assay: as above; format: cell-based; conditions: NaPT alone or in the inhibitory mixture with silver salt; TSB pH 7.3, 35° C., 1 to 2 days
# Candida albicans 10251 = assay: as above; format: cell-based; conditions: NaPT alone or in the inhibitory mixture with silver salt; TSB pH 7.3, 35° C., 1 to 2 days
# Pityrosporum ovale 1452 = assay: as above; format: cell-based; conditions: NaPT alone or in the inhibitory mixture with silver salt; Ushijima Medium pH 5.5, 35° C., 1 to 2 days
# [8] = tested on: P. aeruginosa 9027 free-living cells; assay: Viable free-living cells in bulk metalworking fluid (Example 5); format: cell-based, Pseudomonas aeruginosa; conditions: 100 PPM NaPT; for viable free-living cells in the bulk fluid: 5% soluble oil MWF, 2.5 PPM Zn(II) or both, 4 days
# [9] = tested on: Fusarium sp. free-living cells; assay: as above; format: cell-based; conditions: 100 PPM NaPT, 10 PPM Zn (II) or both, 4 days after treatment
# Experimental: (§1) Experiments were conducted to investigate the efficacy of the composition of the present invention to inhibit the survival, growth, and proliferation of free-living and biofilm populations of bacteria and fungi in metalworking fluids. […] Metalworking fluids (MWF) employed included 5% soluble oil MWF, 5% semi-synthetic MWF, or 5% synthetic MWS. For testing against bacteria, metalworking fluids were supplemented with 2% (weight-to-weight ratio (w:w)) of 5 g/L yeast extract (Difco), Metalworking fluids were supplemented with 2% (weight-to-weight (w:w)) of Tryptic Soy Broth (Difco) for fungal tests.
# (§2) For each experiment, three ml of a 5% metalworking fluid was added to each of twelve, sterile, 16 mm×150 mm glass culture tubes. […] Fusarium sp. was added to the tubes to final concentrations of 10^5 spores/ml for the fungal tests. Tubes incubated for 3 days at 28° C. and 180 rpms.
# (§3) After the treatments additions were performed, the culture tubes resumed incubation at 28° C., 180 rpms for an additional 4 days.
# (§4) After 4 days, culture tubes were removed from the incubator and viable counts of organisms from the bulk MWF fluid and the biofilm were determined using serial dilution and drop plating techniques. For biofilms, polycarbonate discs were removed from tubes, dip-rinsed in three successive washes of de-ionized water to remove loosely attached cells, and transferred to 25 mm×150 mm culture tubes containing 10 ml of sterile, de-ionized water. Biofilms were removed from discs and resuspended by vortexing tubes for 30 seconds. Bacteria were plated on to R2A Agar plates and incubated at 37° C. Fungi were plated onto Malt Agar plates and incubated at 28° C. Mean colony forming units per ml (for bulk) and per square cm (cm^2) biofilm were determined for each experimental treatment.
# [10] = tested on: P. aeruginosa 9027 biofilm; assay: Viable biofilm cells on discs in metalworking fluid (Example 5); format: cell-based, Pseudomonas aeruginosa; conditions: 100 PPM NaPT; for viable biofilm cells: 5% soluble oil MWF, 2.5 PPM Zn(II) or both, 4 days
# E. coli 8739 biofilm = assay: as above; format: cell-based, Escherichia coli; conditions: polycarbonate disc, 100 PPM NaPT, 10 PPM Zn (II) or both, 4 days after treatment
# Fusarium sp. biofilm = assay: as above; format: cell-based; conditions: polycarbonate disc, 100 PPM NaPT, 10 PPM Zn (II) or both, 4 days after treatment
# Experimental: as §1, §2, §3, §4
# [11] = tested on: Fusarium sp. and Cephalosporium sp.; assay: Various mixtures of NaPT and Zn(II) against fungi in 5% metalworking fluid (Example 8, Table 10b); format: cell-based
structure (smiles),measurement,setting,value
"[Na+].[O-][n+]1ccccc1[S-] [NaPT, sodium pyrithione]",MIC NaPT (with 0.5 ppm Cu),"[1]; TSB with 0.5 ppm Cu (II), 5-6 days",256 ppm
same,MIC,"[1]; TSB, incubated 5-6 days, single agent (NaPT without Cu)",256 ppm
same,MIC NaPT (with 0.5 ppm Cu),Fusarium sp.,8 ppm
same,MIC NaPT (with 0.5 ppm Cu),"Cephalosporium sp.; TSB with 0.5 ppm Cu (II), 5 days",16 ppm
same,MIC,"Cephalosporium sp.; TSB, incubated 5 days, single agent (NaPT without Cu)",64 ppm
same,Zone of Inhibition,[2],31 mm
same,Zone of Inhibition,[3],35 mm
same,MIC Pyrithione,[4],4 ppm
same,MIC Pyrithione,[5],128 ppm
same,MIC NaPT,[6],4 ppm and 8 ppm
same,MIC NaPT,[7],256 ppm
same,MIC NaPT,Candida albicans 10251,16 ppm
same,MIC NaPT,Pityrosporum ovale 1452,4 ppm
same,viable free-living cells in the bulk fluid,[8]; tube with Polycarbonate surface,4.9 × 10^5 cells/ml
same,viable free-living cells in the bulk fluid,[8]; tube with Rubber surface,50 cells/ml
same,viable free-living cells in the bulk fluid,[8]; tube with Steel surface,3.5 × 10^6 cells/ml
same,viable free-living microorganisms,"[8]; 5% synthetic MWF, 10 PPM Zn (II) or both, 4 days after treatment",7.8 × 10^6 cells/ml and 7.0 × 10^5 cells/ml and 5.4 × 10^5 cells/ml
same,viable free-living microorganisms,[9]; 5% semisynth. MWF,2.8 × 10^5 cells/ml
same,viable free-living microorganisms,[9]; 5% solub. oil MWF,4.2 × 10^6 cells/ml
same,viable free-living microorganisms,[9]; 5% synthetic MWF,6.0 × 10^6 cells/ml
same,viable free-living microorganisms,[9]; 100% TSB,0 cells/ml
same,viable biofilm microorganisms,"[10]; 5% solub. oil MWF, polycarbonate disc, 10 PPM Zn (II) or both, 4 days after treatment",2.0 × 10^5 cells/cm^2 and 2.6 × 10^4 cells/cm^2
same,viable biofilm cells,[10]; Polycarbonate surface,2.8 × 10^4 cells/cm^2
same,viable biofilm cells,[10]; Rubber surface,5.3 × 10^2 cells/cm^2
same,viable biofilm cells,[10]; Steel surface,1.1 × 10^5 cells/cm^2
same,viable biofilm microorganisms,E. coli 8739 biofilm; 5% solub. oil MWF,1.6 × 10^5 cells/cm^2
same,viable biofilm microorganisms,E. coli 8739 biofilm; 10% TSB,1.4 × 10^6 cells/cm^2
same,viable biofilm microorganisms,Fusarium sp. biofilm; 5% semisynth. MWF,18 cells/cm^2
same,viable biofilm microorganisms,Fusarium sp. biofilm; 5% solub. oil MWF,4.6 × 10^5 cells/cm^2
same,viable biofilm microorganisms,Fusarium sp. biofilm; 5% synthetic MWF,7.3 × 10^4 cells/cm^2
same,viable biofilm microorganisms,Fusarium sp. biofilm; 100% TSB,96 cells/cm^2
same,Fungi/ml,"[11]; semi-synthetic, NaPT 100 PPM, Day 1",1.1 × 10^4 Fungi/ml
same,Fungi/ml,"[11]; semi-synthetic, NaPT 100 PPM, Day 1, tube of the Day 1/Day 4 series",2.0 × 10^4 Fungi/ml
same,Fungi/ml,"[11]; semi-synthetic, NaPT 100 PPM, Day 2",1.3 × 10^3 Fungi/ml
same,Fungi/ml,"[11]; semi-synthetic, NaPT 100 PPM, Day 4",1.0 × 10^4 Fungi/ml
same,Fungi/ml,"[11]; semi-synthetic, NaPT 100 PPM, Day 7",0 Fungi/ml
same,Fungi/ml,"[11]; semi-synthetic, NaPT 300 PPM, Day 1",3.0 × 10^3 Fungi/ml
same,Fungi/ml,"[11]; semi-synthetic, NaPT 300 PPM, Day 2",570 Fungi/ml
same,Fungi/ml,"[11]; semi-synthetic, NaPT 300 PPM, Day 7",0 Fungi/ml
same,Fungi/ml,"[11]; semi-synthetic, NaPT 500 PPM, Day 1",9.0 × 10^3 Fungi/ml
same,Fungi/ml,"[11]; semi-synthetic, NaPT 500 PPM, Day 2",300 Fungi/ml
same,Fungi/ml,"[11]; semi-synthetic, NaPT 500 PPM, Day 7",0 Fungi/ml
same,Fungi/ml,"[11]; soluble oil, NaPT 100 PPM, Day 1",3.2 × 10^4 Fungi/ml
same,Fungi/ml,"[11]; soluble oil, NaPT 100 PPM, Day 1, tube of the Day 1/Day 4 series",3.6 × 10^4 Fungi/ml
same,Fungi/ml,"[11]; soluble oil, NaPT 100 PPM, Day 2",2.9 × 10^4 Fungi/ml
same,Fungi/ml,"[11]; soluble oil, NaPT 100 PPM, Day 4",2.9 × 10^4 Fungi/ml
same,Fungi/ml,"[11]; soluble oil, NaPT 100 PPM, Day 7",1.5 × 10^4 Fungi/ml
same,Fungi/ml,"[11]; soluble oil, NaPT 300 PPM, Day 1",1.7 × 10^4 Fungi/ml
same,Fungi/ml,"[11]; soluble oil, NaPT 300 PPM, Day 2",1.0 × 10^4 Fungi/ml
same,Fungi/ml,"[11]; soluble oil, NaPT 300 PPM, Day 7",560 Fungi/ml
same,Fungi/ml,"[11]; soluble oil, NaPT 500 PPM, Day 1",1.9 × 10^4 Fungi/ml
same,Fungi/ml,"[11]; soluble oil, NaPT 500 PPM, Day 2",2.8 × 10^4 Fungi/ml
same,Fungi/ml,"[11]; soluble oil, NaPT 500 PPM, Day 7",610 Fungi/ml
same,Fungi/ml,"[11]; synthetic, NaPT 100 PPM, Day 1",3.0 × 10^4 Fungi/ml
same,Fungi/ml,"[11]; synthetic, NaPT 100 PPM, Day 1, tube of the Day 1/Day 4 series",9.0 × 10^3 Fungi/ml
same,Fungi/ml,"[11]; synthetic, NaPT 100 PPM, Day 2",2.0 × 10^3 Fungi/ml
same,Fungi/ml,"[11]; synthetic, NaPT 100 PPM, Day 4",5.0 × 10^3 Fungi/ml
same,Fungi/ml,"[11]; synthetic, NaPT 100 PPM, Day 7",2.0 × 10^3 Fungi/ml
same,Fungi/ml,"[11]; synthetic, NaPT 300 PPM, Day 1",2.9 × 10^4 Fungi/ml
same,Fungi/ml,"[11]; synthetic, NaPT 300 PPM, Day 2",2.1 × 10^4 Fungi/ml
same,Fungi/ml,"[11]; synthetic, NaPT 300 PPM, Day 7",1.2 × 10^4 Fungi/ml
same,Fungi/ml,"[11]; synthetic, NaPT 500 PPM, Day 1",2.7 × 10^4 Fungi/ml
same,Fungi/ml,"[11]; synthetic, NaPT 500 PPM, Day 2",4.0 × 10^3 Fungi/ml
same,Fungi/ml,"[11]; synthetic, NaPT 500 PPM, Day 7",3.0 × 10^3 Fungi/ml
